Laboratory results as given in ChEMBL document CHEMBL1795227, “Methanesulfonamido-cyclohexylamine derivatives of 2,4-diaminopyrimidine as potent ALK inhibitors” (Bioorg Med Chem Lett, 2011).
One block for each molecule: values may come before it.

Legend:
[1] = target: Aurora kinase A (Homo sapiens) (UniProt O14965); experiment: Inhibition of AURKA at 1 uM
[2] = target: Serine/threonine-protein kinase pim-1 (Homo sapiens) (UniProt P11309); experiment: Inhibition of PIM1 at 1 uM
[3] = target: Tyrosine-protein kinase BTK (Homo sapiens) (UniProt Q06187); experiment: Inhibition of BTK at 1 uM
Chain of Tyrosine-protein kinase BTK (Homo sapiens) (Q06187 whole entry): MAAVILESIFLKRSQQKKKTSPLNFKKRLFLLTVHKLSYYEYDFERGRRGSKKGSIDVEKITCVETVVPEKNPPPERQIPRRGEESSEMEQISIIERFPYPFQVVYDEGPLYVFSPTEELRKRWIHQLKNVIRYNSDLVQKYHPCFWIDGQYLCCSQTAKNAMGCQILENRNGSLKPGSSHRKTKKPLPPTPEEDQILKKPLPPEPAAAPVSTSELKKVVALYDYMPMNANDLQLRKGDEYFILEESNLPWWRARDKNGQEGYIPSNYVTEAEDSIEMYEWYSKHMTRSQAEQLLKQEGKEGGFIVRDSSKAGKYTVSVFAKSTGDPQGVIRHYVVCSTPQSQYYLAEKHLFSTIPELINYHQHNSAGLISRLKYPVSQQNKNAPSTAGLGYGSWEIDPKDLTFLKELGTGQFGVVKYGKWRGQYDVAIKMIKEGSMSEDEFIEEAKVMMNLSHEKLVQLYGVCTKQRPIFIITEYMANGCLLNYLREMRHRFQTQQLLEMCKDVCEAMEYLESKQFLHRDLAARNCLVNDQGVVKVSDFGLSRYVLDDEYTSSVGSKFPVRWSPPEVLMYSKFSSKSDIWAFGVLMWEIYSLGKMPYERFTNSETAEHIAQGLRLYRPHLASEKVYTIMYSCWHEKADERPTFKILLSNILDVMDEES

[4] = target: Fibroblast growth factor receptor 1 (Homo sapiens) (UniProt P11362); experiment: Inhibition of FGFR1 at 1 uM
[5] = target: Glycogen synthase kinase-3 alpha (Homo sapiens) (UniProt P49840); experiment: Inhibition of GSK3A at 1 uM
[6] = target: Serine/threonine-protein kinase PAK 4 (Homo sapiens) (UniProt O96013); experiment: Inhibition of PAK4 at 1 uM
[7] = target: T1, Insulin receptor (Homo sapiens, UniProt P06213); experiment: Inhibition of IR
T1 sequence (P06213 28-758 limits assumed): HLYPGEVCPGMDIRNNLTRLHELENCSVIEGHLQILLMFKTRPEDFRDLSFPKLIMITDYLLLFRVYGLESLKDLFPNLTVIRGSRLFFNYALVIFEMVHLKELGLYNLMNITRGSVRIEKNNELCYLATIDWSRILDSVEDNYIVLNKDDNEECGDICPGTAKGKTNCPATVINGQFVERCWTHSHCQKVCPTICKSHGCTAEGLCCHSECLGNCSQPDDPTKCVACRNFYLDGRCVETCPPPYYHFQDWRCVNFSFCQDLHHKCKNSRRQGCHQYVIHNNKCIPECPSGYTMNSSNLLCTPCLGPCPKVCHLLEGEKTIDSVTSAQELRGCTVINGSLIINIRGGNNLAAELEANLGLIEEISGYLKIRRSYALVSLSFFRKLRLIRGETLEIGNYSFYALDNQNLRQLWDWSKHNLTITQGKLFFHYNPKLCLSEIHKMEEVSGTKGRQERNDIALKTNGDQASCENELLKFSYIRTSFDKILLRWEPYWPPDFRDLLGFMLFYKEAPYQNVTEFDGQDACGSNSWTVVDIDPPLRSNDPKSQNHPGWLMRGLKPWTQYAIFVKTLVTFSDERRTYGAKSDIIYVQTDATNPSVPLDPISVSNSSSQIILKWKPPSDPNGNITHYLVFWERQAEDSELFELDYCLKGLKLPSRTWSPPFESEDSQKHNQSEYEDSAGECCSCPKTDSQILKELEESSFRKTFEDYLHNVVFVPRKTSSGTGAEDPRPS
T1 sequence (P06213 763-1382 limits assumed): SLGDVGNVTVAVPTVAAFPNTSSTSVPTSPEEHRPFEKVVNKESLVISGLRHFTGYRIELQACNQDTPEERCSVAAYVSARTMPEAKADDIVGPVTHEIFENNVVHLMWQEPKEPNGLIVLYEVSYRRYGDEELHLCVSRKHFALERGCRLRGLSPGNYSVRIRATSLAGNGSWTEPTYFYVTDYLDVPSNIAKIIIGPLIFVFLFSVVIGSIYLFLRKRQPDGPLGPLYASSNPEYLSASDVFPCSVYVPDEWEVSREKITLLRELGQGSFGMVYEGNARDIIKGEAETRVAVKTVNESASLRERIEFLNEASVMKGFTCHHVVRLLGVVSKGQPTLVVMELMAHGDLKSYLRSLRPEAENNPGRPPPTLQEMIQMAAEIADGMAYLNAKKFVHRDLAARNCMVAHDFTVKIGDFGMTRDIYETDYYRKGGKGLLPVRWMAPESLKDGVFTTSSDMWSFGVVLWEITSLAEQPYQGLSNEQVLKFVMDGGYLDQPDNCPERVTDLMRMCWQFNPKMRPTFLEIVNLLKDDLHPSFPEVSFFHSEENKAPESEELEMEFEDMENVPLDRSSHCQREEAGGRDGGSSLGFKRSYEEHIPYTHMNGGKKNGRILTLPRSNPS

[8] = target: Ephrin type-A receptor 2 (Homo sapiens) (UniProt P29317); experiment: Inhibition of EPHA2 at 1 uM
Chain of Ephrin type-A receptor 2 (Homo sapiens) (P29317 whole entry): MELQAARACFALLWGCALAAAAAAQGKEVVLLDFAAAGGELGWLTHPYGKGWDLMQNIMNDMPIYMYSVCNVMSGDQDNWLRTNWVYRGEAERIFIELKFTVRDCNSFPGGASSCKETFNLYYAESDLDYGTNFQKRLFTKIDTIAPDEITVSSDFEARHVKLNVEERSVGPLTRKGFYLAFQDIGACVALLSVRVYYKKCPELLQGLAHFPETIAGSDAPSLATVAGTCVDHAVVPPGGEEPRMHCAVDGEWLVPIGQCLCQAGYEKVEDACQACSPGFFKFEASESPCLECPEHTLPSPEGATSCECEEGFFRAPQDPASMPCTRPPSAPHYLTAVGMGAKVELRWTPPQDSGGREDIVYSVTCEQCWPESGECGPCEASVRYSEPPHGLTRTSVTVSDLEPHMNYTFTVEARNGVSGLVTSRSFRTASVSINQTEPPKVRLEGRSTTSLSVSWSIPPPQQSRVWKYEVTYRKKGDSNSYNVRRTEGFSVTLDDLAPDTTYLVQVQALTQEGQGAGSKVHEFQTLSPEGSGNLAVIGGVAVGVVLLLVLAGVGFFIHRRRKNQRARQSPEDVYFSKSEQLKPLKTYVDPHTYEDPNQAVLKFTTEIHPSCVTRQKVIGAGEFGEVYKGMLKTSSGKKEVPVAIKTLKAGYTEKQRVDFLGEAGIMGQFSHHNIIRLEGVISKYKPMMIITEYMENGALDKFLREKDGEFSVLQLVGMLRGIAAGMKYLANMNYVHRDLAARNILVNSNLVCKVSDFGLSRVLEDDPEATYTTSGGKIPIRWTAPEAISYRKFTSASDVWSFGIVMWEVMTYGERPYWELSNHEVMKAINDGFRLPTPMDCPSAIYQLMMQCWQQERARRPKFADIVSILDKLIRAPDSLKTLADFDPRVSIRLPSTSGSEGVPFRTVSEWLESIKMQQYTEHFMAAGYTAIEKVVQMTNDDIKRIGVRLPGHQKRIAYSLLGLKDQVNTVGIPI

[9] = target: Mitogen-activated protein kinase 8 (Homo sapiens) (UniProt P45983); experiment: Inhibition of JNK1 at 1 uM
[10] = system: Mast/stem cell growth factor receptor Kit (Homo sapiens), P10721 [D816V]; conditions: 1 uM
Description: Inhibition of KIT D816V at 1 uM

[11] = target: Platelet-derived growth factor receptor beta (Homo sapiens) (UniProt P09619); conditions: 1 uM
Description: Inhibition of PDGFR beta at 1 uM

[12] = target: Fibroblast growth factor receptor 2 (Homo sapiens) (UniProt P21802); experiment: Inhibition of FGFR2 at 1 uM
[13] = target: Mitogen-activated protein kinase 11 (Homo sapiens) (UniProt Q15759); experiment: Inhibition of p38 beta at 1 uM
[14] = target: Cyclin-dependent kinase 2 (Homo sapiens) (UniProt P24941); experiment: Inhibition of CDK2 at 1 uM
[15] = target: T1, Insulin receptor; experiment: Inhibition of INSR at 1 uM
[16] = target: Aurora kinase C (Homo sapiens) (UniProt Q9UQB9); experiment: Inhibition of AURKC at 1 uM
[17] = target: Vascular endothelial growth factor receptor 2 (Homo sapiens) (UniProt P35968); experiment: Inhibition of VEGFR2 at 1 uM
[18] = target: Activin receptor type-1 (Homo sapiens) (UniProt Q04771); experiment: Inhibition of ACVR1 at 1 uM
[19] = target: RAC-gamma serine/threonine-protein kinase (Homo sapiens) (UniProt Q9Y243); experiment: Inhibition of AKT3 at 1 uM
[20] = target: Serine/threonine-protein kinase B-raf (Homo sapiens) (UniProt P15056); experiment: Inhibition of BRAF at 1 uM
[21] = target: Epidermal growth factor receptor (Homo sapiens) (UniProt P00533); experiment: Inhibition of EGFR at 1 uM
[22] = target: Receptor-type tyrosine-protein kinase FLT3 (Homo sapiens) (UniProt P36888); experiment: Inhibition of FLT3 at 1 uM
[23] = target: Platelet-derived growth factor receptor alpha (Homo sapiens) (UniProt P16234); experiment: Inhibition of PDGFRalpha at 1 uM
[24] = target: TGF-beta receptor type-1 (Homo sapiens) (UniProt P36897); experiment: Inhibition of TGFBR1 at 1 uM
[25] = target: Serine/threonine-protein kinase STK11 (Homo sapiens) (UniProt Q15831); experiment: Inhibition of LKB1 at 1 uM
Chain of Serine/threonine-protein kinase STK11 (Homo sapiens) (Q15831 whole entry): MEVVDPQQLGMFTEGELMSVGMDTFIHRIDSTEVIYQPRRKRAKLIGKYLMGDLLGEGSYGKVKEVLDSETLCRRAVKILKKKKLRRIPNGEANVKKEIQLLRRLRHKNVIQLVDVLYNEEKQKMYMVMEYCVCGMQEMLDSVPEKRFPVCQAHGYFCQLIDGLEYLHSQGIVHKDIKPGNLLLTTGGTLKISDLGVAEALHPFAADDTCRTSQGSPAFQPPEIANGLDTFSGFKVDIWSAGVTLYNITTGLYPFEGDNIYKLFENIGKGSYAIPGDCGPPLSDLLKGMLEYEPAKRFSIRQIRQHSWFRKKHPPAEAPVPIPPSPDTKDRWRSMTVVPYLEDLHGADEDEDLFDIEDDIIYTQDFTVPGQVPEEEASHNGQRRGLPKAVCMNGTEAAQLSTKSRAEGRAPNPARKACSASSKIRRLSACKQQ

[26] = target: Mitogen-activated protein kinase 12 (Homo sapiens) (UniProt P53778); experiment: Inhibition of p38 gamma at 1 uM
[27] = target: T2, ALK tyrosine kinase receptor (Homo sapiens, UniProt Q9UM73); experiment: Inhibition of autophosphorylation of NPM-ALK in human Karpas-299 cells; assay type: cell-based
T2 sequence (Q9UM73 19-1620 limits assumed): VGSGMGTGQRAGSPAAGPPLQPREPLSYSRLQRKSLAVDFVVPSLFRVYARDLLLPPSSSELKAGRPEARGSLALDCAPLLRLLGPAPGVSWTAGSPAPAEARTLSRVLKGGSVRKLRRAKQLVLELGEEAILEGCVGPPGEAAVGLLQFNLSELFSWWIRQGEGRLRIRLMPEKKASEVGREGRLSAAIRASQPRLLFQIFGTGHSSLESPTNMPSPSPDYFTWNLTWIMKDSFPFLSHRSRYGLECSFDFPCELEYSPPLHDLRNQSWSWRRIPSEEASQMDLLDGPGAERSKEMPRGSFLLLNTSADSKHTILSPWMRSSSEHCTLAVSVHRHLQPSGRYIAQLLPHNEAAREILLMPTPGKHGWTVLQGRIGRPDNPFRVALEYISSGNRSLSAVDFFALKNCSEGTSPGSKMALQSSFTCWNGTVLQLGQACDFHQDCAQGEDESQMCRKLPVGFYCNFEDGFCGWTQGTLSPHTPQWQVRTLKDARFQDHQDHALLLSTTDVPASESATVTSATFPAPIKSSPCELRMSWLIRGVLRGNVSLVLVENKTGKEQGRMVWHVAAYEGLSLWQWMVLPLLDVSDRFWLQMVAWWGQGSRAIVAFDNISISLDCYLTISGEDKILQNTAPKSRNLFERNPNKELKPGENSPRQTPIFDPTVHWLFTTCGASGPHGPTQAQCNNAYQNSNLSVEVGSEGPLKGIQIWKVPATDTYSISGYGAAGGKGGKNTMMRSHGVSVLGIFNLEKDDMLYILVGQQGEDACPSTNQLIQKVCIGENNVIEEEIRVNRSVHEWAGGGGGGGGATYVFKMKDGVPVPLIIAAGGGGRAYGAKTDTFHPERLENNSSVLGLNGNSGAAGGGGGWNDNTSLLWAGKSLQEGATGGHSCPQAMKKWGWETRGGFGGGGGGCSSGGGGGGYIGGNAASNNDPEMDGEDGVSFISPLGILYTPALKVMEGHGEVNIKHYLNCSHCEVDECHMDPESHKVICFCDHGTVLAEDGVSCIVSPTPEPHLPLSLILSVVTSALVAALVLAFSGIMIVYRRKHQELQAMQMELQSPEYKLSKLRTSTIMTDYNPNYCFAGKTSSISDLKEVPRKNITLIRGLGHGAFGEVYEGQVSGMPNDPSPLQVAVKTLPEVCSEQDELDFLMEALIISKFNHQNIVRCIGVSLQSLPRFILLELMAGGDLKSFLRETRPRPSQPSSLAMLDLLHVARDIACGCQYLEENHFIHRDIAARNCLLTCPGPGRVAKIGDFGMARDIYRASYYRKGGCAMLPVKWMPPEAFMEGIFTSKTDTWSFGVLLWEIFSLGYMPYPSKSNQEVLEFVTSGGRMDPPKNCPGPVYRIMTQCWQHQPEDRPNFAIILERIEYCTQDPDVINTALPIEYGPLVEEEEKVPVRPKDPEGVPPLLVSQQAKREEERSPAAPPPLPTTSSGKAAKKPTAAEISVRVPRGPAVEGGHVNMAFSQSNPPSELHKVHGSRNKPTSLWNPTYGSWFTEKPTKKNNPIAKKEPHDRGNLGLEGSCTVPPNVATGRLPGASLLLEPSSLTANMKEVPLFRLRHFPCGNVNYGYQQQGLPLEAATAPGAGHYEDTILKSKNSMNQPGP

[28] = target: Tyrosine-protein kinase JAK2 (Homo sapiens) (UniProt O60674); experiment: Inhibition of JAK2 domain 2 at 1 uM
[29] = target: RAF proto-oncogene serine/threonine-protein kinase (Homo sapiens) (UniProt P04049); experiment: Inhibition of RAF1 at 1 uM
[30] = target: Insulin-like growth factor 1 receptor (Homo sapiens) (UniProt P08069); experiment: Inhibition of IGF1R at 1 uM
[31] = target: Serine/threonine-protein kinase PLK1 (Homo sapiens) (UniProt P53350); experiment: Inhibition of PLK1 at 1 uM
[32] = target: Serine/threonine-protein kinase PAK 1 (Homo sapiens) (UniProt Q13153); experiment: Inhibition of PAK1 at 1 uM
[33] = target: T2, ALK tyrosine kinase receptor; conditions: 1 uM
Description: Inhibition of ALK at 1 uM

[34] = target: Tyrosine-protein kinase ZAP-70 (Homo sapiens) (UniProt P43403); experiment: Inhibition of ZAP70 at 1 uM
[35] = target: Tyrosine-protein kinase SYK (Homo sapiens) (UniProt P43405); experiment: Inhibition of SYK at 1 uM
[36] = target: Non-receptor tyrosine-protein kinase TYK2 (Homo sapiens) (UniProt P29597); experiment: Inhibition of TYK2 domain 2 at 1 uM
[37] = target: Fibroblast growth factor receptor 4 (Homo sapiens) (UniProt P22455); conditions: 1 uM
Description: Inhibition of FGFR4 at 1 uM

[38] = target: Macrophage colony-stimulating factor 1 receptor (Homo sapiens) (UniProt P07333); experiment: Inhibition of CSF1R at 1 uM
[39] = system: Mast/stem cell growth factor receptor Kit (Homo sapiens), P10721 [V559D,T670I]; experiment: Inhibition of KIT V559D T670I at 1 uM
[40] = target: Protein kinase C eta type (Homo sapiens) (UniProt P24723); experiment: Inhibition of PRKCH at 1 uM
[41] = target: Proto-oncogene tyrosine-protein kinase Src (Homo sapiens) (UniProt P12931); experiment: Inhibition of SRC at 1 uM
[42] = target: Tyrosine-protein kinase Lck (Homo sapiens) (UniProt P06239); experiment: Inhibition of LCK at 1 uM
[43] = target: Mitogen-activated protein kinase 9 (Homo sapiens) (UniProt P45984); experiment: Inhibition of JNK2 at 1 uM
[44] = target: Mitogen-activated protein kinase 10 (Homo sapiens) (UniProt P53779); experiment: Inhibition of JNK3 at 1 uM
[45] = target: RAC-alpha serine/threonine-protein kinase (Homo sapiens) (UniProt P31749); experiment: Inhibition of AKT1 at 1 uM
[46] = target: Mast/stem cell growth factor receptor Kit (Homo sapiens) (UniProt P10721); experiment: Inhibition of KIT at 1 uM
[47] = target: Proto-oncogene tyrosine-protein kinase receptor Ret (Homo sapiens) (UniProt P07949); experiment: Inhibition of RET at 1 uM
[48] = target: Angiopoietin-1 receptor (Homo sapiens) (UniProt Q02763); experiment: Inhibition of Tie2 at 1 uM
[49] = target: Fibroblast growth factor receptor 3 (Homo sapiens) (UniProt P22607); conditions: 1 uM
Description: Inhibition of FGFR3 at 1 uM

inhibition [1]: < 65% | inhibition [2]: < 65% | inhibition [3]: < 65% | inhibition [4]: 86% | inhibition [5]: < 65% | inhibition [6]: < 65% | IC50 [7]: 1400 nM | inhibition [8]: < 65% | inhibition [9]: < 65% | inhibition [10]: 97% | inhibition [11]: < 65% | inhibition [12]: < 65% | inhibition [13]: < 65% | inhibition [14]: < 65% | inhibition [15]: < 65% | inhibition [16]: < 65% | inhibition [17]: < 65% | inhibition [18]: < 65% | inhibition [19]: < 65% | inhibition [20]: < 65% | inhibition [21]: < 65% | inhibition [22]: 82% | inhibition [23]: < 65% | inhibition [24]: < 65% | inhibition [25]: < 65% | inhibition [26]: < 65% | IC50 [27]: 65 nM | inhibition [28]: < 65% | inhibition [29]: < 65% | inhibition [30]: < 65% | inhibition [31]: 94% | inhibition [32]: < 65% | inhibition [33]: 97% | inhibition [34]: < 65% | inhibition [35]: < 65% | inhibition [36]: < 65% | inhibition [37]: < 65% | inhibition [38]: < 65% | inhibition [39]: < 65% | inhibition [40]: < 65% | inhibition [41]: < 65% | inhibition [42]: < 65% | inhibition [43]: < 65% | inhibition [44]: < 65% | inhibition [45]: < 65% | inhibition [46]: < 65% | inhibition [47]: < 65% | inhibition [48]: < 65% | inhibition [49]: < 65%
Compound: COCCN1CCc2cc(Nc3ncc(Cl)c(N[C@@H]4CCCC[C@H]4NS(C)(=O)=O)n3)c(OC)cc2CC1

inhibition [1]: < 65% | inhibition [2]: 90% | inhibition [3]: < 65% | inhibition [4]: 100% | inhibition [5]: < 65% | inhibition [6]: < 65% | IC50 [7]: 460 nM | inhibition [8]: < 65% | inhibition [9]: 97% | inhibition [10]: 100% | inhibition [11]: 100% | inhibition [12]: 99% | inhibition [13]: < 65% | inhibition [14]: < 65% | inhibition [15]: 70% | inhibition [16]: < 65% | inhibition [17]: < 65% | inhibition [18]: < 65% | inhibition [19]: < 65% | inhibition [20]: < 65% | inhibition [21]: 89% | inhibition [22]: 99% | inhibition [23]: < 65% | inhibition [24]: < 65% | inhibition [25]: 94% | inhibition [26]: < 65% | IC50 [27]: 15 nM | inhibition [28]: < 65% | inhibition [29]: < 65% | inhibition [30]: 73% | inhibition [31]: 96% | inhibition [32]: < 65% | inhibition [33]: 100% | inhibition [34]: < 65% | inhibition [35]: < 65% | inhibition [36]: < 65% | inhibition [37]: 100% | inhibition [38]: 98% | inhibition [39]: 92% | inhibition [40]: 79% | inhibition [41]: < 65% | inhibition [42]: < 65% | inhibition [43]: < 65% | inhibition [44]: 98% | inhibition [45]: < 65% | inhibition [46]: 96% | inhibition [47]: < 65% | inhibition [48]: < 65% | inhibition [49]: 100%
Compound: COCCN1CCc2cc(Nc3ncc(Cl)c(N[C@@H]4CCCC[C@H]4N(C)S(C)(=O)=O)n3)c(OC)cc2CC1
